Data: patent US9938258B2 (Karyopharm Therapeutics Inc., priority 2012, dated 2018)
Like-named read-outs stand apart in the source and are kept apart here.

Columns and labels:
MS751 cells = assay: MTT cell proliferation assay, MS751; format: cell-based, human; conditions: eight concentrations 1 nM to 30 μM, incubation approximately 64-72 hours, read-out: MTT Assay IC50, MS751
Experimental: (§1) The MTT cell proliferation assay was used to study the cytotoxic properties of the compounds. The assay was performed according to the method described by Roche Molecular Biochemicals, with minor modifications. The assay is based on the cleavage of the tetrazolium salt, MTT, in the presence of an electron-coupling reagent. The water-insoluble formazan salt produced must be solubilized in an additional step. Cells grown in a 96-well tissue culture plate were incubated with the MTT solution for approximately 4 hours. After this incubation period, a water-insoluble formazan dye formed. After solubilization, the formazan dye was quantitated using a scanning multi-well spectrophotometer (ELISA reader). […] The cells were seeded at 5,000-10,000 cells in each well of 96-well plate in 100 μL of fresh culture medium and were allowed to attach overnight. The stock solutions of the compounds were diluted in 100 μL cell culture medium to obtain eight concentrations of each test compound, ranging from 1 nM to 30 μM. […] All optical densities were measured at 490 nm using a Vmax Kinetic Microplate Reader (Molecular Devices). In most cases, the assay was performed in duplicate and the results were presented as a mean percent inhibition to the negative control±SE. The following formula was used to calculate the percent of inhibition: Inhibition (%)=(1-(ODo/OD)) ×100.
(§2) The compounds were tested against MS751, Z138 and 3T3 cells. The MS751 cell line is derived from a metastasis to lymph node of human cervix from a patient diagnosed with squameous cell carcinoma of the cervix. The Z138 cell line is a mature B-cell acute lymphoblastic leukemia cell line derived from a patient with chronic lumphocytic leukemia. 3T3 cells are standard fibroblast cells; they were originally isolated from Swiss mouse embryo tissue.

Z138 cells = assay: MTT cell proliferation assay, Z138; format: cell-based; conditions: eight concentrations 1 nM to 30 μM, incubation approximately 64-72 hours, read-out: MTT Assay IC50, Z138
Experimental: as §1, §2

3T3 cells = assay: MTT cell proliferation assay, 3T3; format: cell-based, mouse; conditions: eight concentrations 1 nM to 30 μM, incubation approximately 64-72 hours, read-out: MTT Assay IC50, 3T3
Experimental: as §1, §2

[1] = Homo sapiens, MS751, MS751 cells
[2] = Homo sapiens, Z-138, Z138 cells
[3] = Mus musculus, NIH3T3, 3T3 cells

Row | SMILES | IC50 (MS751 cells; [1]) [µM] | IC50 (Z138 cells; [2]) [µM] | IC50 (3T3 cells; [3]) [µM] | IC50 (MS751 cells; MS751 cells) [µM] | IC50 (Z138 cells; Z138 cells) [µM] | IC50 (3T3 cells; 3T3 cells) [µM]
1 | COc1ccc(F)cc1-c1cc(Cl)c2c(c1)CC(CNC(=O)/C=C/c1cccnc1)O2 (stereo not drawn) [Compound 61, (E)-N-((7-chloro-5-(5-fluoro-2-methoxyphenyl)-2,3-dihydrobenzofuran-2-yl)methyl)-3-(pyridin-3-yl)acrylamide] | 0.1 to 5 | 0.1 to 5 | 0.1 to 5 |  |  | 
2 | CN(C)c1ccc(-c2cc(Cl)c3c(c2)CC(CNC(=O)/C=C/c2cccnc2)O3)cc1 (stereo not drawn) [Compound 64, (E)-N-((7-chloro-5-(4-(dimethylamino)phenyl)-2,3-dihydrobenzofuran-2-yl)methyl)-3-(pyridin-3-yl)acrylamide] | 0.1 to 5 | < 0.1 | 0.1 to 5 |  |  | 
3 | O=C(/C=C/c1cccnc1)NCC1Cc2cc(-c3ccccc3)cc(Cl)c2O1 (stereo not drawn) [Compound 67, (E)-N-((7-chloro-5-phenyl-2,3-dihydrobenzofuran-2-yl)methyl)-3-(pyridin-3-yl)acrylamide] | 0.1 to 5 | 0.1 to 5 | 5 to 30 |  |  | 
4 | O=C(/C=C/c1cccnc1)NCC1Cc2cc(-c3cccnc3)cc(Cl)c2O1 (stereo not drawn) [Compound 70, (E)-N-((7-chloro-5-(pyridin-3-yl)-2,3-dihydrobenzofuran-2-yl)methyl)-3-(pyridin-3-yl)acrylamide] | 0.1 to 5 | 0.1 to 5 | 5 to 30 |  |  | 
5 | O=C(/C=C/c1cccnc1)NCC1Cc2cc(-c3cccc(F)c3F)cc(Cl)c2O1 (stereo not drawn) [Compound 73, (E)-N-((7-chloro-5-(2,3-difluorophenyl)-2,3-dihydrobenzofuran-2-yl)methyl)-3-(pyridin-3-yl)acrylamide] | 0.1 to 5 | 0.1 to 5 | 5 to 30 |  |  | 
6 | O=C(/C=C/c1cccnc1)NCC1Cc2cc(-c3cccc(C(=O)O)c3)cc(Cl)c2O1 (stereo not drawn) [Compound 76, (E)-3-(7-chloro-2-((3-(pyridin-3-yl)acrylamido)methyl)-2,3-dihydrobenzofuran-5-yl)benzoic acid] | 5 to 30 | 5 to 30 | 5 to 30 |  |  | 
7 | CS(=O)(=O)c1cncc(-c2cc(Cl)c3c(c2)CC(CNC(=O)/C=C/c2cccnc2)O3)c1 (stereo not drawn) [Compound 77, (E)-N-((7-chloro-5-(5-(methylsulfonyl)pyridin-3-yl)-2,3-dihydrobenzofuran-2-yl)methyl)-3-(pyridin-3-yl)acrylamide] | 0.1 to 5 | 0.1 to 5 | 0.1 to 5 |  |  | 
8 | CS(=O)(=O)c1cccc(-c2cc(Cl)c3c(c2)CC(CNC(=O)/C=C/c2cccnc2)O3)c1 (stereo not drawn) [Compound 80, (E)-N-((7-chloro-5-(3-(methylsulfonyl)phenyl)-2,3-dihydrobenzofuran-2-yl)methyl)-3-(pyridin-3-yl)acrylamide] | 0.1 to 5 | 0.1 to 5 | 0.1 to 5 |  |  | 
9 | O=C(/C=C/c1cccnc1)NCC1Cc2cccc(Cl)c2O1 (stereo not drawn) [Compound 83, (E)-N-((7-chloro-2,3-dihydrobenzofuran-2-yl)methyl)-3-(pyridin-3-yl)acrylamide] | 5 to 30 | 5 to 30 | > 30 |  |  | 
10 | Nc1ccccc1-c1cc(Cl)c2c(c1)CC(CNC(=O)/C=C/c1cccnc1)O2 (stereo not drawn) [Compound 84, (E)-N-((5-(2-aminophenyl)-7-chloro-2,3-dihydrobenzofuran-2-yl)methyl)-3-(pyridin-3-yl)acrylamide] | 0.1 to 5 | 0.1 to 5 | 5 to 30 |  |  | 
11 | CC(=O)c1ccc(-c2cc(F)c3c(c2)CC(CNC(=O)/C=C/c2cccnc2)O3)s1 (stereo not drawn) [Compound 87, (E)-N-((5-(5-acetylthiophen-2-yl)-7-fluoro-2,3-dihydrobenzofuran-2-yl)methyl)-3-(pyridin-3-yl)acrylamide] | 0.1 to 5 | 0.1 to 5 | 0.1 to 5 |  |  | 
12 | CC(=O)c1ccc(-c2cc(Cl)c3c(c2)CC(CNC(=O)/C=C/c2cccnc2)O3)o1 (stereo not drawn) [Compound 99, (E)-N-((5-(5-acetylfuran-2-yl)-7-chloro-2,3-dihydrobenzofuran-2-yl)methyl)-3-(pyridin-3-yl)acrylamide] | < 0.1 | < 0.1 | 0.1 to 5 |  |  | 
13 | CC(=O)c1ccc(-c2cc(Cl)c3c(c2)CC(CNC(=O)/C=C/c2ccccn2)O3)s1 (stereo not drawn) [Compound 103, (E)-N-((5-(5-acetylthiophen-2-yl)-7-chloro-2,3-dihydrobenzofuran-2-yl)methyl)-3-(pyridin-2-yl)acrylamide] | > 30 | > 30 | > 30 |  |  | 
14 | CC(=O)c1ccc(-c2cc(Cl)c3c(c2)CC(CNC(=O)/C=C/c2cnc(N)nc2)O3)s1 (stereo not drawn) [Compound 104, (E)-N-((5-(5-acetylthiophen-2-yl)-7-chloro-2,3-dihydrobenzofuran-2-yl)methyl)-3-(2-aminopyrimidin-5-yl)acrylamide] | > 30 | > 30 | > 30 |  |  | 
15 | CC(=O)c1ccc(-c2cc(Cl)c3c(c2)CC(CNC(=O)/C=C/c2cccnc2N)O3)s1 (stereo not drawn) [Compound 106, (E)-N-((5-(5-acetylthiophen-2-yl)-7-chloro-2,3-dihydrobenzofuran-2-yl)methyl)-3-(2-aminopyridin-3-yl)acrylamide] | 5 to 30 | 5 to 30 | 5 to 30 |  |  | 
16 | CC(=O)c1ccc(-c2cc(Cl)c3c(c2)CC(CNC(=O)/C=C/c2cnccc2N)O3)s1 (stereo not drawn) [Compound 108, (E)-N-((5-(5-acetylthiophen-2-yl)-7-chloro-2,3-dihydrobenzofuran-2-yl)methyl)-3-(4-aminopyridin-3-yl)acrylamide] | 0.1 to 5 | 0.1 to 5 | 5 to 30 |  |  | 
17 | CC(=O)c1ccc(-c2cc(Cl)c3c(c2)CC(CNC(=O)/C=C/c2ccccc2N)O3)s1 (stereo not drawn) [Compound 110, (E)-N-((5-(5-acetylthiophen-2-yl)-7-chloro-2,3-dihydrobenzofuran-2-yl)methyl)-3-(2-aminophenyl)acrylamide] | > 30 | > 30 | > 30 |  |  | 
18 | CC(=O)c1ccc(-c2cc(Cl)c3c(c2)CC(CNC(=O)/C=C/c2ccc(C#N)cc2)O3)s1 (stereo not drawn) [Compound 112, (E)-N-((5-(5-acetylthiophen-2-yl)-7-chloro-2,3-dihydrobenzofuran-2-yl)methyl)-3-(4-cyanophenyl)acrylamide] | > 30 | > 30 | > 30 |  |  | 
19 | CC(=O)c1ccc(-c2cc(Cl)c3c(c2)CC(CNC(=O)/C=C/c2ccc(N)cc2)O3)s1 (stereo not drawn) [Compound 114, (E)-N-((5-(5-acetylthiophen-2-yl)-7-chloro-2,3-dihydrobenzofuran-2-yl)methyl)-3-(4-aminophenyl)acrylamide] | > 30 | > 30 | > 30 |  |  | 
20 | CC(=O)c1ccc(-c2cc(Cl)c3c(c2)CC(CNC(=O)/C=C/c2ccc(N)nc2C)O3)s1 (stereo not drawn) [Compound 118, (E)-N-((5-(5-acetylthiophen-2-yl)-7-chloro-2,3-dihydrobenzofuran-2-yl)methyl)-3-(6-amino-2-methylpyridin-3-yl)acrylamide] | 5 to 30 | 0.1 to 5 | 5 to 30 |  |  | 
21 | CC(=O)c1ccc(-c2cc(Cl)c3c(c2)CC(CNC(=O)/C=C/C2C(Cl)=NC4=CC=CCN42)O3)s1 (stereo not drawn) [Compound 120, (E)-N-((5-(5-Acetylthiophen-2-yl)-7-chloro-2,3-dihydrobenzofuran-2-yl)methyl)-3-(2-chloro-3,5-dihydroimidazo[1,2-a]pyridin-3-yl)acrylamide] | 5 to 30 | 5 to 30 | 5 to 30 |  |  | 
22 | CC(=O)c1ccc(-c2cc(Cl)c3c(c2)CC(CNC(=O)/C=C/c2cccnc2)O3)s1 (stereo not drawn) [Compound 122, (E)-N-((5-(5-acetylthiophen-2-yl)-7-chloro-2,3-dihydrobenzofuran-2-yl)methyl)-3-(pyridin-3-yl)acrylamide] |  |  |  | 0.1 to 5 | 0.1 to 5 | 0.1 to 5
23 | CC(=O)c1ccc(-c2cc(Cl)c3c(c2)CC(CN(C)C(=O)/C=C/c2cccnc2)O3)s1 (stereo not drawn) [Compound 125, (E)-N-((5-(5-acetylthiophen-2-yl)-7-chloro-2,3-dihydrobenzofuran-2-yl)methyl)-N-methyl-3-(pyridin-3-yl)acrylamide] | 5 to 30 | 5 to 30 | 5 to 30 |  |  | 
24 | CCOC(=O)c1ccc(-c2cc(Cl)c3c(c2)CC(CNC(=O)/C=C/c2cccnc2)O3)cc1 (stereo not drawn) [Compound 128, (E)-ethyl 4-(7-chloro-2-((3-(pyridin-3-yl)acrylamido)methyl)-2,3-dihydrobenzofuran-5-yl)benzoate] | 0.1 to 5 | < 0.1 | 0.1 to 5 |  |  | 
